Laboratory results reported in patent US20230295200A1 (REGENTS OF THE UNIVERSITY OF MICHIGAN, priority 2022, published 2023).

Tests used:
STAT6 protein = target: T1, STAT6 protein (Homo sapiens, UniProt P42226); experiment: Fluorescence polarization (FP) binding assay, STAT6; conditions: FP competition, 5 nM fluorescein-labeled tracer, 200 nM protein, PBS pH7.4; read-out: Binding STAT6
T1 sequence (P42226 1-847): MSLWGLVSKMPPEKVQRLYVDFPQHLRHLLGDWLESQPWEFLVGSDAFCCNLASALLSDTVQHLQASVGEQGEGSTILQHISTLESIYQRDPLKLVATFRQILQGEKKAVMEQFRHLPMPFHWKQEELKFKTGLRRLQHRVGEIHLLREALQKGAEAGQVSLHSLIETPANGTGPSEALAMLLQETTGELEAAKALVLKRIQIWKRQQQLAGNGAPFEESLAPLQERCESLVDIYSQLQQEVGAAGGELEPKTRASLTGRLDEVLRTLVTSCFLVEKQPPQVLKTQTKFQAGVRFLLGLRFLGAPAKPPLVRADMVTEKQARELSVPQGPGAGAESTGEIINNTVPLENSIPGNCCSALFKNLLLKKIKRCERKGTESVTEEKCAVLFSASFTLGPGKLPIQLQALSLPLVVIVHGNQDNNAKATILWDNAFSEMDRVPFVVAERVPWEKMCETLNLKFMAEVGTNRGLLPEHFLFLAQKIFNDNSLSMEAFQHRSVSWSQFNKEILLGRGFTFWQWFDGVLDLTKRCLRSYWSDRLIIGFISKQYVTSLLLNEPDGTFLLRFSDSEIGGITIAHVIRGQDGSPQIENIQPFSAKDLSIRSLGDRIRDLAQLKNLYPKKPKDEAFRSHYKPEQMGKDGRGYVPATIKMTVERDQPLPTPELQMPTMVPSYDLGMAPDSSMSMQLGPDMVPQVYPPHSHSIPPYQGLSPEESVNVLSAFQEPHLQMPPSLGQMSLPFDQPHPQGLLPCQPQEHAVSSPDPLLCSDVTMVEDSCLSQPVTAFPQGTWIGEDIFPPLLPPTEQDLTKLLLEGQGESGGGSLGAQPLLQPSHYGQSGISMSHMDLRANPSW
Procedure, shortened: (§1)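 Polarization of a 5 nM fluorescein tracer bound by 200 nM STAT protein, measured after 1 h room-temperature equilibration in buffered PBS pH 7.4 with DTT, gave inhibition constants via nonlinear curve fitting.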

STAT5A = target: T2, STAT5A (Homo sapiens, UniProt P42229); experiment: Fluorescence polarization (FP) binding assay, STAT5A; conditions: FP competition, 5 nM fluorescein-labeled tracer, 200 nM protein, PBS pH7.4
T2 sequence (P42229 1-794): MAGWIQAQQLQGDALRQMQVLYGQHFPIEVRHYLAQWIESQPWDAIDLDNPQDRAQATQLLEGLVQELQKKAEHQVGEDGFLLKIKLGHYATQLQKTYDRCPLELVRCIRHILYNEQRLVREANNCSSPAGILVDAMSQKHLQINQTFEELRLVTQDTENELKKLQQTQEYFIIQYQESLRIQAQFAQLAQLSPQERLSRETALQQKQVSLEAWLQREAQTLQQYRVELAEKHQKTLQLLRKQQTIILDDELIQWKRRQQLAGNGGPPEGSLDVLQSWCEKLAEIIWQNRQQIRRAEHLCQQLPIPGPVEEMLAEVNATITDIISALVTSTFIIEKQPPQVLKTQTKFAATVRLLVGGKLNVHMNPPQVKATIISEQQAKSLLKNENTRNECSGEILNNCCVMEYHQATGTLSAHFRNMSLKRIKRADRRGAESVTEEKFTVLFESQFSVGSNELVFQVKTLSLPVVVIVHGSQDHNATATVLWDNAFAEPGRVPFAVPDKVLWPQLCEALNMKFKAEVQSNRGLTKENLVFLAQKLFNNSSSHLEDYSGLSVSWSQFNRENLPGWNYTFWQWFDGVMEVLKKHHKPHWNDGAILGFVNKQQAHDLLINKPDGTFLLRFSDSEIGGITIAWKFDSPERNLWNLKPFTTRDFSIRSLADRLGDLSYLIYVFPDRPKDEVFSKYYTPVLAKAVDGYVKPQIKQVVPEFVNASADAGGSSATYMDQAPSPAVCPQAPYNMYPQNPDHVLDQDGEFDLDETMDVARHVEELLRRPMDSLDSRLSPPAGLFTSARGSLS
Procedure, shortened: as §1

Row | Compound | Ki (STAT6 protein) | Ki (STAT5A)
1 | CC(C)(C)[C@H](NC(=O)c1cc2cc(C(F)(F)P(=O)(O)O)ccc2s1)C(=O)N1CCC[C@H]1C(=O)N1CCS(=O)(=O)[C@@H](c2ccccc2)C1 [Compound 136, ((2-(((S)-1-((S)-2-((S)-1,1-dioxido-2-phenylthiomorpholine-4-carbonyl)pyrrolidin-1-yl)-3,3-dimethyl-1-oxobutan-2-yl)carbamoyl)benzo[b]thiophen-5-yl)difluoromethyl)phosphonic acid] | 0.1 to 1 µM | 1 to 10 µM
2 | CC(C)(C)[C@H](NC(=O)c1cc2cc(C(F)(F)P(=O)(O)O)ccc2s1)C(=O)N1CCC[C@H]1C(=O)N1CCOC(c2ccccn2)C1 (stereo partly drawn) [Compound 140, ((2-(((2S)-3,3-dimethyl-1-oxo-1-((2S)-2-(2-(pyridin-2-yl)morpholine-4-carbonyl)pyrrolidin-1-yl)butan-2-yl)carbamoyl)benzo[b]thiophen-5-yl)difluoromethyl)phosphonic acid] | 0.1 to 1 µM | > 10 µM
3 | CC(C)(C)[C@H](NC(=O)c1cc2cc(C(F)(F)P(=O)(O)O)ccc2s1)C(=O)N1Cc2ccccc2C1C(=O)N1CCO[C@H](c2ccccc2)C1 (stereo partly drawn) [Compound 141, ((2-(((2S)-3,3-dimethyl-1-oxo-1-(1-((R)-2-phenylmorpholine-4-carbonyl)isoindolin-2-yl)butan-2-yl)carbamoyl)benzo[b]thiophen-5-yl)difluoromethyl)phosphonic acid] | 0.1 to 1 µM | 1 to 10 µM
4 | CC(C)(C)[C@H](NC(=O)c1cc2cc(C(F)(F)P(=O)(O)O)ccc2s1)C(=O)N1Cc2ccccc2C1C(=O)N1CCO[C@@H](c2ccccc2)C1 (stereo partly drawn) [Compound 142, ((2-(((2S)-3,3-dimethyl-1-oxo-1-(1-((S)-2-phenylmorpholine-4-carbonyl)isoindolin-2-yl)butan-2-yl)carbamoyl)benzo[b]thiophen-5-yl)difluoromethyl)phosphonic acid] | 1 to 10 µM | > 10 µM
5 | C#CC[C@H](NC(=O)c1cc2cc(C(F)(F)P(=O)(O)O)ccc2s1)C(=O)N1CCC[C@H]1C(=O)N1CCO[C@H](c2ccccc2)C1 [Compound 147, (difluoro(2-(((S)-1-oxo-1-((S)-2-((R)-2-phenylmorpholine-4-carbonyl)pyrrolidin-1-yl)pent-4-yn-2-yl)carbamoyl)benzo[b]thiophen-5-yl)methyl)phosphonic acid] | 0.1 to 1 µM | > 10 µM
6 | O=C(N[C@H](C(=O)N1CCC[C@H]1C(=O)N1CCO[C@H](c2ccccc2)C1)C1CC1)c1cc2cc(C(F)(F)P(=O)(O)O)ccc2s1 [Compound 148, ((2-(((S)-1-cyclopropyl-2-oxo-2-((S)-2-((R)-2-phenylmorpholine-4-carbonyl)pyrrolidin-1-yl)ethyl)carbamoyl)benzo[b]thiophen-5-yl)difluoromethyl)phosphonic acid] | 0.1 to 1 µM | 1 to 10 µM
7 | CC(C)(O)[C@H](NC(=O)c1cc2cc(C(F)(F)P(=O)(O)O)ccc2s1)C(=O)N1CCC[C@H]1C(=O)N1CCO[C@H](c2ccccc2)C1 [Compound 149, (difluoro(2-(((S)-3-hydroxy-3-methyl-1-oxo-1-((S)-2-((R)-2-phenylmorpholine-4-carbonyl)pyrrolidin-1-yl)butan-2-yl)carbamoyl)benzo[b]thiophen-5-yl)methyl)phosphonic acid] | 0.1 to 1 µM | > 10 µM
8 | CCC(CC)[C@H](NC(=O)c1cc2cc(C(F)(F)P(=O)(O)O)ccc2s1)C(=O)N1CCC[C@H]1C(=O)N1CCO[C@@H](c2ccccc2)C1 [Compound 150, ((2-(((S)-3-ethyl-1-oxo-1-((S)-2-((S)-2-phenylmorpholine-4-carbonyl)pyrrolidin-1-yl)pentan-2-yl)carbamoyl)benzo[b]thiophen-5-yl)difluoromethyl)phosphonic acid] | 1 to 10 µM | > 10 µM
9 | CC(C)(C)[C@H](NC(=O)c1ccc2cc(C(F)(F)P(=O)(O)O)ccc2c1)C(=O)N1CCC[C@H]1C(=O)N1CCO[C@@H](c2ccccc2)C1 [Compound 151, ((6-(((S)-3,3-dimethyl-1-oxo-1-((S)-2-((S)-2-phenylmorpholine-4-carbonyl)pyrrolidin-1-yl)butan-2-yl)carbamoyl)naphthalen-2-yl)difluoromethyl)phosphonic acid] | 1 to 10 µM | > 10 µM
10 | CCC[C@H](NC(=O)c1cc2cc(C(F)(F)P(=O)(O)O)ccc2s1)C(=O)N1CCC[C@H]1C(=O)N1CCO[C@@H](c2ccccc2)C1 [Compound 152, (difluoro(2-(((S)-1-oxo-1-((S)-2-((S)-2-phenylmorpholine-4-carbonyl)pyrrolidin-1-yl)pentan-2-yl)carbamoyl)benzo[b]thiophen-5-yl)methyl)phosphonic acid] | 1 to 10 µM | > 10 µM

The next lines start with the values.

Row | Ki (STAT6 protein) | Ki (STAT5A) | Compound
11 | 1 to 10 µM | > 10 µM | CC(C)(C)[C@H](NC(=O)c1cc2cc(C(F)(F)P(=O)(O)O)ccc2s1)C(=O)N1CCC[C@H]1C(=O)N1CCOC(C2CCCCC2)C1 (stereo partly drawn) [Compound 134, ((2-(((2S)-1-((2S)-2-(2-cyclohexylmorpholine-4-carbonyl)pyrrolidin-1-yl)-3,3-dimethyl-1-oxobutan-2-yl)carbamoyl)benzo[b]thiophen-5-yl)difluoromethyl)phosphonic acid]
12 | 0.1 to 1 µM | 1 to 10 µM | CC(C)(C)[C@H](NC(=O)c1cc2cc(C(F)(F)P(=O)(O)O)ccc2s1)C(=O)N1CCC[C@H]1C(=O)N1CCS(=O)(=O)[C@H](c2ccccc2)C1 [Compound 135, ((2-(((S)-1-((S)-2-((R)-1,1-dioxido-2-phenylthiomorpholine-4-carbonyl)pyrrolidin-1-yl)-3,3-dimethyl-1-oxobutan-2-yl)carbamoyl)benzo[b]thiophen-5-yl)difluoromethyl)phosphonic acid]
13 | 1 to 10 µM | > 10 µM | CC(C)(C)[C@H](NC(=O)c1cc2cc(C(F)(F)P(=O)(O)O)ccc2s1)C(=O)N1CCC[C@H]1C(=O)N1CCC(O)C(c2ccccc2)C1 (stereo partly drawn) [Compound 137, (difluoro(2-(((2S)-1-((2S)-2-(4-hydroxy-3-phenylpiperidine-1-carbonyl)pyrrolidin-1-yl)-3,3-dimethyl-1-oxobutan-2-yl)carbamoyl)benzo[b]thiophen-5-yl)methyl)phosphonic acid]
14 | 0.1 to 1 µM | 1 to 10 µM | CCC(CC)[C@H](NC(=O)c1cc2cc(C(F)(F)P(=O)(O)O)ccc2s1)C(=O)N1CCC[C@H]1C(=O)N1CCO[C@H](c2ccccc2)C1 [Compound 144, ((2-(((S)-3-ethyl-1-oxo-1-((S)-2-((R)-2-phenylmorpholine-4-carbonyl)pyrrolidin-1-yl)pentan-2-yl)carbamoyl)benzo[b]thiophen-5-yl)difluoromethyl)phosphonic acid]
15 | 0.1 to 1 µM | > 10 µM | CC(C)(C)[C@H](NC(=O)c1ccc2cc(C(F)(F)P(=O)(O)O)ccc2c1)C(=O)N1CCC[C@H]1C(=O)N1CCO[C@H](c2ccccc2)C1 [Compound 145, ((6-(((S)-3,3-dimethyl-1-oxo-1-((S)-2-((R)-2-phenylmorpholine-4-carbonyl)pyrrolidin-1-yl)butan-2-yl)carbamoyl)naphthalen-2-yl)difluoromethyl)phosphonic acid]
16 | 0.1 to 1 µM | 1 to 10 µM | CC[C@H](NC(=O)c1cc2cc(C(F)(F)P(=O)(O)O)ccc2s1)C(=O)N1CCC[C@H]1C(=O)N1CCO[C@H](c2ccccc2)C1 [Compound 146, (difluoro(2-(((S)-1-oxo-1-((S)-2-((R)-2-phenylmorpholine-4-carbonyl)pyrrolidin-1-yl)butan-2-yl)carbamoyl)benzo[b]thiophen-5-yl)methyl)phosphonic acid]
